Values quoted from earlier work as cited in patent publication US11951146B2, “Stimulation of NK cell activity by using a combination of broccoli, Nigella Sativa, Green Tea, and pterostilbene alone and together with metformin” (Therapeutic Solutions International, Inc., priority 2020, dated 2024).
Like-named read-outs stand apart in the source and are kept apart here.

Key:
[1] = system: interleukin-1, interleukin-6, interleukin-8, TNF-alpha
[2] = rat, in vivo
polymicrobial sepsis [3] = conditions: 10 mg/kg intraperitoneally, 72 h after CL2P
polymicrobial sepsis [4] = conditions: 10 mg/kg intraperitoneally at 1 and 6 h after CL2P and every 12 h
experimental colitis = conditions: 50 and 100 mg/kg/day EGCG
LPS-induced ARDS [5] = conditions: EGCG 10 mg/kg ip
[6] = system: lethal endotoxemia / lethal sepsis
[7] = system: myocardial ischemia and reperfusion; conditions: EGCG 10 mg/kg intravenously then 10 mg/kg/h infusion
[8] = system: lipopolysaccharide-activated macrophages
[9] = system: LPS-challenged macrophages; conditions: pre-incubated 6 h, then LPS 24 h
[10] = system: primary peritoneal macrophages
LPS-induced ARDS [11] = system: LPS-induced ARDS
sepsis = conditions: for concentration of IL-la: controls 1187.0±278.64
[12] = system: lipopolysaccharide-induced inflammatory reactions

trans-3,5-dimethoxy-4-hydroxystilbene [pterostilbene]
inhibition of interleukin-1, interleukin-6, interleukin-8 and TNF-alpha [1]: inhibition | bioavailability [2]: 80%

epigallocatechin-3-gallate [EGCG]
survival (polymicrobial sepsis [3]): significantly improved | TNF-α-induced nuclear factor-κB (NF-κB) activity (macrophage foam cells): inhibition | TNF-α-induced downregulation of ABCA1 and decrease in cholesterol efflux to apoA1 (macrophage foam cells; pretreatment with EGCG): attenuated | hypotension (mean arterial blood pressure) (polymicrobial sepsis [4]): significantly improved | HIF-la and STAT3 protein expression in the colon (experimental colitis): decreasing | plasma levels of IL-1β and TGF-β1 (experimental colitis): increasing | release of IL-6 and IL-17 (experimental colitis): reduce the release | expression of IκB-α (LPS-induced ARDS [5]): increased the expression | expression of TLR-4, MyD88, TRIF and p-p65 in the lung tissue (LPS-induced ARDS [5]): alleviated the expression | expression of TNF-α, IL-1β and IL-6 in lung, serum and bronchoalveolar lavage fluid (LPS-induced ARDS [5]): significantly decreased | expression of p65 (LPS-induced ARDS [5]): had no influence | rescue from lethal sepsis ([6]; first dose 24 hours after cecal ligation and puncture): rescued | protection against lethal endotoxemia ([6]; intraperitoneal): protected | myocardial damage and myeloperoxidase activity [7]: reduced | plasma IL-6 and creatine phosphokinase levels [7]: decreased | NO production ([8]; cells cotreated with EGCG and LPS): Inhibition | activation of nuclear factor-kappaB ([8]; electrophoretic mobility shift assay): blocked the activation

C[S+]([O-])CCCCN=C=S (stereo not shown) [sulforaphane, 1-isothiocyanato-4-(methylsulfinyl)-butane]
expression of NO and cytokines [9]: prevent the expression | HO-1 expression ([10]; LPS-stimulated Nrf2 (+/+) primary peritoneal macrophages): significantly augmented | LPS-stimulated mRNA expression, protein expression and production of TNF-alpha, IL-1beta, COX-2 and iNOS ([10]; Nrf2 (+/+) primary peritoneal macrophages, pretreatment): potently inhibited | anti-inflammatory effect ([10]; Nrf2 (−/−) primary peritoneal macrophages): attenuated | Nrf2/antioxidant response element (ARE) pathway (LPS-induced ARDS [11]; pre-treatment): activated | LDH activity, wet-to-dry ratio of the lungs, serum IL-6 and TNF-α, nuclear factor-κB protein expression (LPS-induced ARDS [11]; sulforaphane 50 mg/kg, LPS 5 mg/kg 3 days later): significantly decreased | PGE2 production, COX-2 and MMP-9 protein expression, iNOS activity (LPS-induced ARDS [11]; sulforaphane 50 mg/kg, LPS-induced ALI): significantly inhibited

CC1=CC(=O)C(C(C)C)=CC1=O [thymoquinone]
concentration of IL-la (sepsis; 0.75 mg/kg thymoquinone dose): 310.8 ± 70.93 pg/mL | IL-1β levels (sepsis; 0.75 mg/kg thymoquinone, controls 5505.2±333.96): 2885.0 ± 553.98 pg/mL | concentration of IL-la (sepsis; 1 mg/kg group): 428.3 ± 71.32 pg/mL | levels of TNF-α and IL-2 (sepsis; P values=0.1817 and 0.0851): relatively lower levels | reduction of mortality (sepsis; mice, sepsis): 80-90% | renal and hepatic biomarker profiles (sepsis; mice, sepsis): improved | lipopolysaccharide-induced inflammatory reactions [12]: suppressed effectively | concentration of nitric oxide ([12]; lipopolysaccharide-induced): reduced significantly
